Measured values from ChEMBL document CHEMBL5143585, “Discovery and characterization of benzyloxy piperidine based dopamine 4 receptor antagonists” (Bioorg Med Chem Lett, 2022).
pIC50, pKi: −log10 of the molar value.

What was measured:
[1] = biological target: D(2) dopamine receptor (Homo sapiens) (UniProt P14416); assay: Displacement of [3H]N-methylspiperone from human D2 receptor expressed in HEK293 cell membrane at 10 uM by competitive inhibition based analysis; format: cell membranes
[2] = biological target: T1, D(4) dopamine receptor (Homo sapiens, UniProt P21917); assay: Displacement of [3H]N-methylspiperone from human D4 receptor expressed in HEK293 cell membrane by competitive inhibition based analysis; format: cell membranes
T1 sequence (P21917 whole entry): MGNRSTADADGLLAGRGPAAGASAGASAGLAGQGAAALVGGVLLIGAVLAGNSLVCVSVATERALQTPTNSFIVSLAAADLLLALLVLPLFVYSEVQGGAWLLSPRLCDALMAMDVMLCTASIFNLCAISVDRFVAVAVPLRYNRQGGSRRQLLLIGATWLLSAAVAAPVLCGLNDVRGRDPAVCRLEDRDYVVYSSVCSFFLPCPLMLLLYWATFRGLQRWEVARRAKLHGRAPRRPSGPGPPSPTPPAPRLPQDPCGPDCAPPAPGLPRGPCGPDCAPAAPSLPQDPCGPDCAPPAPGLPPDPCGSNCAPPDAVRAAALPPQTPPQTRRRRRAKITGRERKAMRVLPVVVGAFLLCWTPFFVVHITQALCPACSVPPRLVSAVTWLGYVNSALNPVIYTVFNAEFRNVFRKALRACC

[3] = Intrinsic clearance in human liver microsomes; format: ADME, Microsome; settings: read-out: CLH
[4] = Protein binding in mouse plasma assessed as unbound fraction; format: ADME, cell-free
[5] = Stability of the compound in mouse plasma; format: ADME, cell-free
[6] = biological target: D(3) dopamine receptor (Homo sapiens, UniProt P35462); assay: Displacement of [3H]N-methylspiperone from human D3 receptor expressed in HEK293 cell membrane at 10 uM by competitive inhibition based analysis; format: cell membranes
[7] = biological target: D(1B) dopamine receptor (Homo sapiens, UniProt P21918); assay: Displacement of [3H]-SCH23390 from human D5 receptor expressed in HEK293 cell membrane at 10 uM by competitive inhibition based analysis; format: cell membranes
[8] = Protein binding in human plasma assessed as unbound fraction; format: ADME, cell-free
[9] = biological target: D(1A) dopamine receptor (Homo sapiens, UniProt P21728); assay: Displacement of [3H]-SCH23390 from human D1 receptor expressed in HEK293 cell membrane at 10 uM by competitive inhibition based analysis; format: cell membranes
D(1A) dopamine receptor, sequence (P21728 whole entry): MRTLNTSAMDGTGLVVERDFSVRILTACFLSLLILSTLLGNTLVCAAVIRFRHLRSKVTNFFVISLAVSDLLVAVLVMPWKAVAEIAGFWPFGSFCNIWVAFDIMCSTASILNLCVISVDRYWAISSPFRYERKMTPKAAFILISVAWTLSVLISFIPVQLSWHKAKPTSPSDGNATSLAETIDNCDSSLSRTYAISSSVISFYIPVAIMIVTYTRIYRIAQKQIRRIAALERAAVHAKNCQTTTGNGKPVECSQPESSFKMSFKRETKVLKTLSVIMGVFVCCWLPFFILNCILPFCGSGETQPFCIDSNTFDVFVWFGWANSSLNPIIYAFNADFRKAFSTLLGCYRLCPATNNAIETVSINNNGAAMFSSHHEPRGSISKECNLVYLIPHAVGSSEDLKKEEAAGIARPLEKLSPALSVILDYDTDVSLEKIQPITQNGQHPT

D(2) dopamine receptor (Homo sapiens), sequence (P14416 whole entry): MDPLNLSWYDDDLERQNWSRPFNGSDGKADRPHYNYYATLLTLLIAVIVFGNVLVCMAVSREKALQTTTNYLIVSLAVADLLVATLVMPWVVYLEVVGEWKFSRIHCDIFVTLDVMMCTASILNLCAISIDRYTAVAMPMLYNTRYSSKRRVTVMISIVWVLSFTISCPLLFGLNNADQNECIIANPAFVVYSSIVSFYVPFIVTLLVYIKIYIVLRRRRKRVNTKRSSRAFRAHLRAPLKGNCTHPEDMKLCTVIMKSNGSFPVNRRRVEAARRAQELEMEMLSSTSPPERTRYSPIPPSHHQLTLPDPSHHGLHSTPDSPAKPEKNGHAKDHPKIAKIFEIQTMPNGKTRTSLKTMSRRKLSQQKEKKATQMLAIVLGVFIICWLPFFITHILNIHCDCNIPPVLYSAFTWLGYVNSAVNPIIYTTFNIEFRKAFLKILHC
D(1B) dopamine receptor, sequence (P21918 whole entry): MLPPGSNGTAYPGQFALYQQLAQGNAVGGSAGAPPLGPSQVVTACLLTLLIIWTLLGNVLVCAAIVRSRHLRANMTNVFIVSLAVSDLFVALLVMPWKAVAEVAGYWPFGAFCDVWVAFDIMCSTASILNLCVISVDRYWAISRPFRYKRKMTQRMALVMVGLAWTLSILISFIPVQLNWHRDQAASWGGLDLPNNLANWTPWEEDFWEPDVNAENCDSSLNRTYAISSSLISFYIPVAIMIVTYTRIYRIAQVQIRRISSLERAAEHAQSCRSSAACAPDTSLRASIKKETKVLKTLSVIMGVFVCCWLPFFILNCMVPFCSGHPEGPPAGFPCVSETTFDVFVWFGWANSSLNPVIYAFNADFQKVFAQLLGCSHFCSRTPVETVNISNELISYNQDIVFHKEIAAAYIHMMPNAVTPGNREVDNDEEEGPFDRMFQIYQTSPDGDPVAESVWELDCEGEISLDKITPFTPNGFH
D(3) dopamine receptor, sequence (P35462 whole entry): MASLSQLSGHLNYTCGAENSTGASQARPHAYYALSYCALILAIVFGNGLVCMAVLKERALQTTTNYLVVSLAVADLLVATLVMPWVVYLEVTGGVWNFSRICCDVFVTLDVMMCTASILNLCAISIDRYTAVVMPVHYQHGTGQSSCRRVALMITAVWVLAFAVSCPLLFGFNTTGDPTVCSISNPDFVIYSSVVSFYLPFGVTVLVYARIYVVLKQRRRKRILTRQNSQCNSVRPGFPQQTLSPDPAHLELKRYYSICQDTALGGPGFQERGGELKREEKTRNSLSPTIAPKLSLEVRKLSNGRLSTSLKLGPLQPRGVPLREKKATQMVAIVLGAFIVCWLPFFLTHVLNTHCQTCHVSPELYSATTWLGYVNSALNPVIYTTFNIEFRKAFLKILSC

| Structure (SMILES) | inhibition [1] | pIC50 [2] | pKi [2] | CLint scaled [3] | Fu [4] | Stability [5] | inhibition [6] | inhibition [7] | Fu [8] | inhibition [9] |
| --- | --- | --- | --- | --- | --- | --- | --- | --- | --- | --- |
| COc1ccc(CN2CCO[C@H](COc3ccccc3)C2)cc1F | < 50% | 8.30 | 8.24 | 71.9 mL/min/kg | 3.7% | – | – | – | – | – |
| Cc1cc(NC(=O)CN2CCC(OCc3ccc(F)c(F)c3)CC2)ccc1F | < 50% | 6.92 | 6.92 | – | – | Unstable | < 50% | < 50% | 0.5% | < 50% |
